Experimental data published in PMC11762577 (Materials Today Bio, 2025).

Assays:
U87-MG cells = assay: CCK-8 cell viability / cytotoxicity assay in U87-MG cells; assay type: cell-based, human; conditions: incubation with U87-MG cells for 24 h
[1] = assay type: in vivo, BALB/c nude mice; conditions: orthotopic glioma nude mice; 2.5 mg/kg Dox equivalent every three days; n = 5

COc1cccc2c1C(=O)c1c(O)c3c(c(O)c1C2=O)C[C@@](O)(C(=O)CO)C[C@@H]3O[C@H]1C[C@H](N)[C@H](O)[C@H](C)O1 [Dox, doxorubicin]
IC50 (equivalent Dox concentration), U87-MG cell viability (U87-MG cells): 3.49 µg/mL
body weight of tumor-bearing mice [1]: decreased on day 12
